This note sets out measurements from a compilation of properties of binary mixtures (doi:10.1021/je700428f).

The nature of this series: xn = mol fraction of the nth substance listed. The settings on record: 100 kPa.

On to `CCCO` + C=CC[n+]1ccn(C)c1.O=S(=O)([N-]S(=O)(=O)C(F)(F)F)C(F)(F)F, for which the speed of sound (298.15 K, x2 = 0) is 1206.5 m/s; the speed of sound (338.15 K, x2 = 0) came to 1071.5 m/s; the speed of sound (343.15 K, x2 = 0) is recorded as 1054.5 m/s.

Regarding `CC[S+](CC)CC.O=S(=O)([N-]S(=O)(=O)C(F)(F)F)C(F)(F)F` + CCCO, the speed of sound reads like this: (293.15 K, x1 = 0.0493) 1205.5 m/s; (308.15 K, x1 = 0.0493) 1159.5 m/s; (323.15 K, x1 = 0.903) 1181.5 m/s.

Consider `CCCO` + CC[S+](CC)CC.O=S(=O)([N-]S(=O)(=O)C(F)(F)F)C(F)(F)F, for which the speed of sound runs as follows: (338.15 K, x2 = 0) 1071.5 m/s; (343.15 K, x2 = 0) 1054.5 m/s.

With `C=CC[n+]1ccn(C)c1.O=S(=O)([N-]S(=O)(=O)C(F)(F)F)C(F)(F)F` + CCCO, the speed of sound came to 1189.5 m/s (298.15 K, x1 = 0.2987); 1207.5 m/s (308.15 K, x1 = 0.8024); 1173.5 m/s (313.15 K, x1 = 0.5004); 1127.5 m/s (323.15 K, x1 = 0.2987).
